Patent US8697739B2, “Bicyclic acetyl-CoA carboxylase inhibitors and uses thereof” (Novartis AG, priority 2010, dated 2014)

molecular target: T1, human acetyl-CoA carboxylase 2 (ACC2) (Homo sapiens, UniProt O00763); assay: Acetyl-CoA carboxylase enzyme assay (malonyl-CoA formation by LC/MS/MS); format: biochemical; conditions: recombinant human ACC2 (aa 144-2458); read-out: IC50 ACC2
T1 construct: The cDNA encoding amino acids 144 to 2458 of human acetyl-CoA carboxylase 2; made in house; host or cells: Sf9 insect cells (baculovirus, pFastBac1)
T1 sequence (O00763 144-2458): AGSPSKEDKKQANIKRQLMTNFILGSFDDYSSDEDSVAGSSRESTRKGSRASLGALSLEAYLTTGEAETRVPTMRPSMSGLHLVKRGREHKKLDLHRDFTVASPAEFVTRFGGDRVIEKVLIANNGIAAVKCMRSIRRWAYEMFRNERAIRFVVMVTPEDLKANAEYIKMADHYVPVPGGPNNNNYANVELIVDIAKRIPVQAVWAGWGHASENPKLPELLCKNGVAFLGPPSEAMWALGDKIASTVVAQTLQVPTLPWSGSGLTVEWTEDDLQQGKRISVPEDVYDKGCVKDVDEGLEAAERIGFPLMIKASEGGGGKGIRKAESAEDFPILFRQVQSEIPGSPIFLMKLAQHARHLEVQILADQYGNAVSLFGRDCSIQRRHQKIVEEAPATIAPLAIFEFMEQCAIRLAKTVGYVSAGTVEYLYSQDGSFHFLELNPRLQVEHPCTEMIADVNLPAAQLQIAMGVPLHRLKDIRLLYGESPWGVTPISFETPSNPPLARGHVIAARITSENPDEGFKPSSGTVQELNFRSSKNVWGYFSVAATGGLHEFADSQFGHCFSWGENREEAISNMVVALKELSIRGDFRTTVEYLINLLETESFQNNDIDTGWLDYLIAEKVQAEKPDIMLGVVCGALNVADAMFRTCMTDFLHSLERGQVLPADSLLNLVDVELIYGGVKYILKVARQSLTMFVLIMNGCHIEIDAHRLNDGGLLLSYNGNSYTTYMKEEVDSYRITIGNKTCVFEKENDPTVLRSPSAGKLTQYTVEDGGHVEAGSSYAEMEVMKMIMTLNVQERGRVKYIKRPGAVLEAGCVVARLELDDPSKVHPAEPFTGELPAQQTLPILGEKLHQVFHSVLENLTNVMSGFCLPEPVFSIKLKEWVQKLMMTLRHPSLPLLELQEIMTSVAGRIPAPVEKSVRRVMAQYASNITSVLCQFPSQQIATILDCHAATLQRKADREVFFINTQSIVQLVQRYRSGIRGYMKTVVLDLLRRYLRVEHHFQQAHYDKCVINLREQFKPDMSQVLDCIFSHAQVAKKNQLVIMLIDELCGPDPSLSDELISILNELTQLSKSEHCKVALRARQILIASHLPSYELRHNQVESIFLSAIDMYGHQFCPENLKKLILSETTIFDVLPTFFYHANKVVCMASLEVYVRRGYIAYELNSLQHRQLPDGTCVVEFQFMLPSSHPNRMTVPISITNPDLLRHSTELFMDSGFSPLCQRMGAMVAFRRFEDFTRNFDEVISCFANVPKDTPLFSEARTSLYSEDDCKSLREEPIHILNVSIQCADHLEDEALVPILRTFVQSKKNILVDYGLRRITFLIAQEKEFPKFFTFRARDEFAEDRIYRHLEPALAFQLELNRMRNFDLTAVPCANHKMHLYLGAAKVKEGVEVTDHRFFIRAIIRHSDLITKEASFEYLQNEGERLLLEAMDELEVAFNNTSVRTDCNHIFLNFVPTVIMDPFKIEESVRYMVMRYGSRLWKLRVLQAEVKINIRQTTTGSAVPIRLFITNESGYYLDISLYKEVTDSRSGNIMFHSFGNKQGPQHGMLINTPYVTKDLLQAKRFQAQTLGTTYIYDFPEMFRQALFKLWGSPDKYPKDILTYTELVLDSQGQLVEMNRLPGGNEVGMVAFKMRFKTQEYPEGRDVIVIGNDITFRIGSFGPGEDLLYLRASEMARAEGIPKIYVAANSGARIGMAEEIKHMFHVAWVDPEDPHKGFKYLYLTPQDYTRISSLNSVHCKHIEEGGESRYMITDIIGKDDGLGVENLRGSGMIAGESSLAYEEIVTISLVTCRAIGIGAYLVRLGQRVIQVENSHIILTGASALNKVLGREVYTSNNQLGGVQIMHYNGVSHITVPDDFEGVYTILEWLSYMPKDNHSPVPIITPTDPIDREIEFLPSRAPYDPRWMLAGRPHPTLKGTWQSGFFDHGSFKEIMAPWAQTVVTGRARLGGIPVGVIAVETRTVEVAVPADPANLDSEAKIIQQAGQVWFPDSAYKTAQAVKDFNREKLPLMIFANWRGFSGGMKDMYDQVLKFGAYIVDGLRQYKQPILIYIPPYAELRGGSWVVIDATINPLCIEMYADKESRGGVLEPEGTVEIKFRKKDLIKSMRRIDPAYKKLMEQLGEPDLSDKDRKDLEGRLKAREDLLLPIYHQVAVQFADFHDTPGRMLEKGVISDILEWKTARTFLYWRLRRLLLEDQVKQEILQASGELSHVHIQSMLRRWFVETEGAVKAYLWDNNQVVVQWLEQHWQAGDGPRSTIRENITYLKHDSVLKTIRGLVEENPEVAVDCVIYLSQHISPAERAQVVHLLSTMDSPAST
Outline: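 Malonyl-CoA formation was read by LC/MS/MS MRM against a [13C3]-malonyl-CoA internal standard, after acetic acid quench. The enzyme was baculovirus/Sf9-expressed human ACC2 residues 144–2458, given 15 minutes room-temperature compound preincubation in HEPES pH 7.5 buffer with MgCl2, citrate and DTT. Substrate solution held 50 μM acetyl-CoA, 120 μM ATP and 2 mM KHCO3.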

IC50 | SMILES
352 nM | O=C(NCC1CCCCC1)[C@H]1CC[C@H](NS(=O)(=O)c2ccc3[nH]c(-c4ccccc4)nc3c2)CC1 [Example 639, (1r,4r)-N-(cyclohexylmethyl)-4-(2-phenyl-1H-benzo[d]imidazole-5-sulfonamido)cyclohexanecarboxamide]
289 nM | CC[C@@H]1CCc2cc(S(=O)(=O)N[C@H]3CC[C@H](C(=O)N[C@H](C)c4ccc(F)cc4)CC3)ccc2N1 [Example 171, (1r,4R)-4-((R)-2-ethyl-1,2,3,4-tetrahydroquinoline-6-sulfonamido)-N-((R)-1-(4-fluorophenyl)ethyl)cyclohexanecarboxamide]
16 nM | C[C@@H](NC(=O)[C@H]1CC[C@H](NS(=O)(=O)c2cnc3c(c2)N(C)[C@@H]2CCCC[C@H]2N3C)CC1)c1ccc(F)cc1 [Example 139, (1R,4R)-4-((5aR,9aR)-5,10-dimethyl-5,5a,6,7,8,9,9a,10-octahydropyrido[3,2-b]quinoxaline-3-sulfonamido)-N-((R)-1-(4-fluorophenyl)ethyl)cyclohexanecarboxamide]
574 nM | C[C@@H](NC(=O)[C@H]1CC[C@H](NS(=O)(=O)c2ccc3[nH]c([C@H]4CCCO4)nc3c2)CC1)c1ccc(F)cc1 [Example 117, (1r,4R)-N-((R)-1-(4-fluorophenyl)ethyl)-4-(2-((R)-tetrahydrofuran-2-yl)-1H-benzo[d]imidazole-5-sulfonamido)cyclohexanecarboxamide]
408 nM | O=C(NCCc1ccccc1)[C@H]1CC[C@H](NS(=O)(=O)c2ccc3[nH]c(-c4ccccc4)nc3c2)CC1 [Example 628, (1r,4r)-N-phenethyl-4-(2-phenyl-1H-benzo[d]imidazole-5-sulfonamido)cyclohexanecarboxamide]
55 nM | O=C([C@H]1CC[C@H](NS(=O)(=O)c2ccc3cc(-c4ccccc4)[nH]c3c2)CC1)N1CCNC(C(F)(F)F)C1 (stereo partly drawn) [Example 323, 2-phenyl-N-((1r,4r)-4-(3-(trifluoromethyl)piperazine-1-carbonyl)cyclohexyl)-1H-indole-6-sulfonamide]
< 10 nM | COC(=O)N1CCNc2ccc(S(=O)(=O)NC3CCC(C(=O)NC(C)c4ccc(F)cc4)CC3)cc21 [Example 221, methyl 7-(N-((1R,4r)-4-((R)-1-(4-fluorophenyl)ethylcarbamoyl)cyclohexyl)sulfamoyl)-3,4-dihydroquinoxaline-1(2H)-carboxylate]
10 nM | CC(C)(O)[C@@H](NC(=O)[C@H]1CC[C@H](NS(=O)(=O)c2ccc3ccccc3c2)CC1)c1ccccc1 [Example 96, (1r,4S)-N-((S)-2-hydroxy-2-methyl-1-phenylpropyl)-4-(naphthalene-2-sulfonamido)cyclohexanecarboxamide]
38 nM | C[C@@H](NC(=O)[C@H]1CC[C@H](NS(=O)(=O)c2ccc3c(c2)N(C)CCO3)CC1)c1ccc(F)cc1 [Example 157, (1r,4R)-N-((R)-1-(4-fluorophenyl)ethyl)-4-(4-methyl-3,4-dihydro-2H-benzo[b][1,4]oxazine-6-sulfonamido)cyclohexanecarboxamide]
> 35000 nM | Cc1nc2cc(S(=O)(=O)N[C@H]3CC[C@H](c4nnc(C(C)(C)C)o4)CC3)ccc2n1Cc1ccccc1 [Example 657, 1-benzyl-N-((1r,4r)-4-(5-tert-butyl-1,3,4-oxadiazol-2-yl)cyclohexyl)-2-methyl-1H-benzo[d]imidazole-5-sulfonamide]
25 nM | COC(=O)CCc1ccc(-c2cc3ccc(S(=O)(=O)N[C@H]4CC[C@H](C(=O)N5CCCC5c5ccc(F)cc5)CC4)cc3n2C)cc1 (stereo partly drawn) [Example 386, methyl 3-(4-(6-(N-((1r,4r)-4-(2-(4-fluorophenyl)pyrrolidine-1-carbonyl)cyclohexyl)sulfamoyl)-1-methyl-1H-indol-2-yl)phenyl)propanoate]
985 nM | Cn1c(-c2ccccc2)cc2ccc(S(=O)(=O)N[C@H]3CC[C@H](C(=O)N4CCN(C5CC5)CC4)CC3)cc21 [Example 406, N-((1r,4r)-4-(4-cyclopropylpiperazine-1-carbonyl)cyclohexyl)-1-methyl-2-phenyl-1H-indole-6-sulfonamide]
305 nM | C[C@@H](NC(=O)[C@H]1CC[C@H](NS(=O)(=O)c2ccc3nc(NCCC(=O)O)ccc3c2)CC1)c1ccc(F)cc1 [Example 203, 3-(6-(N-((1R,4r)-4-((R)-1-(4-fluorophenyl)ethylcarbamoyl)cyclohexyl)sulfamoyl)quinolin-2-ylamino)propanoic acid]
255 nM | CCOC(=O)C1CCCN(C(=O)[C@H]2CC[C@H](NS(=O)(=O)c3ccc4cc(-c5ccc(F)cc5)n(C)c4c3)CC2)C1 (stereo partly drawn) [Example 345, ethyl 1-((1r,4r)-4-(2-(4-fluorophenyl)-1-methyl-1H-indole-6-sulfonamido)cyclohexanecarbonyl)piperidine-3-carboxylate]
119 nM | CC(C)OC(=O)c1ccc(NS(=O)(=O)c2ccc3[nH]c(Nc4cccc(C(C)O)c4)nc3c2)cc1 (stereo not drawn) [Example 553, isopropyl 4-(2-(3-(1-hydroxyethyl)phenylamino)-1H-benzo[d]imidazole-5-sulfonamido)benzoate]
2860 nM | CC(C)OC(=O)c1ccc(NS(=O)(=O)c2ccc3nc(-c4ccncc4)[nH]c3c2)cc1 [Example 515, isopropyl 4-(2-(pyridin-4-yl)-1H-benzo[d]imidazole-6-sulfonamido)benzoate]
283 nM | O=C(NCCc1cccnc1)[C@H]1CC[C@H](NS(=O)(=O)c2ccc3[nH]c(-c4ccccc4)nc3c2)CC1 [Example 643, (1r,4r)-4-(2-phenyl-1H-benzo[d]imidazole-5-sulfonamido)-N-(2-(pyridin-3-yl)ethyl)cyclohexanecarboxamide]
> 35000 nM | C[C@@H](NC(=O)[C@H]1CC[C@@H](NS(=O)(=O)c2ccc3ccccc3c2)CC1)c1ccc(F)cc1 [Example 147, (1s,4S)-N-((R)-1-(4-fluorophenyl)ethyl)-4-(naphthalene-2-sulfonamido)cyclohexanecarboxamide]
365 nM | CC(C)COC(=O)N1CCN(C(=O)OCC(C)C)c2cc(S(=O)(=O)N[C@H]3CC[C@H](C(=O)N[C@H](C)c4ccc(F)cc4)CC3)ccc21 [Example 214, diisobutyl 6-(N-((1R,4r)-4-((R)-1-(4-fluorophenyl)ethylcarbamoyl)cyclohexyl)sulfamoyl)-2,3-dihydroquinoxaline-1,4-dicarboxylate]
245 nM | O=C([C@H]1CC[C@H](NS(=O)(=O)c2cnc3c(c2)NCCN3)CC1)N1CCNCC1c1ccccc1 (stereo partly drawn) [Example 186, N-((1r,4r)-4-(2-phenylpiperazine-1-carbonyl)cyclohexyl)-1,2,3,4-tetrahydropyrido[3,2-b]pyrazine-7-sulfonamide]
28 nM | CC(C)OC(=O)[C@H]1CC[C@H](NS(=O)(=O)c2ccc3[nH]c(Nc4ccccc4)nc3c2)CC1 [Example 554, (1r,4r)-isopropyl 4-(2-(phenylamino)-1H-benzo[d]imidazole-5-sulfonamido)cyclohexanecarboxylate]
115 nM | C[C@@H](NC(=O)[C@H]1CC[C@H](NS(=O)(=O)c2ccc3nc(-c4ccccc4)cn3c2)CC1)c1ccc(F)cc1 [Example 79, (1r,4R)-N-((R)-1-(4-fluorophenyl)ethyl)-4-(2-phenylimidazo[1,2-a]pyridine-6-sulfonamido)cyclohexanecarboxamide]
996 nM | O=C([C@H]1CC[C@H](NS(=O)(=O)c2ccc3[nH]c(-c4ccccc4)nc3c2)CC1)N1CCN(c2ccccc2)CC1 [Example 617, 2-phenyl-N-((1r,4r)-4-(4-phenylpiperazine-1-carbonyl)cyclohexyl)-1H-benzo[d]imidazole-5-sulfonamide]
85 nM | Cc1ccccc1-c1cc2ccc(S(=O)(=O)N[C@H]3CC[C@H](C(=O)N4CCNC(C(F)(F)F)C4)CC3)cc2[nH]1 (stereo partly drawn) [Example 320, 2-o-tolyl-N-((1r,4r)-4-(3-(trifluoromethyl)piperazine-1-carbonyl)cyclohexyl)-1H-indole-6-sulfonamide]
< 10 nM | Cn1c(-c2ccc(CCC(=O)O)cc2)cc2ccc(S(=O)(=O)N[C@H]3CC[C@H](C(=O)N4CCC[C@H]4c4ccc(F)cc4)CC3)cc21 [Example 393, 3-(4-(6-(N-((1S,4r)-4-((S)-2-(4-fluorophenyl)pyrrolidine-1-carbonyl)cyclohexyl)sulfamoyl)-1-methyl-1H-indol-2-yl)phenyl)propanoic acid]
463 nM | COc1ccc(Nc2nc3cc(S(=O)(=O)Nc4ccc(C(=O)OC(C)C)cc4)ccc3[nH]2)cc1 [Example 523, isopropyl 4-(2-(4-methoxyphenylamino)-1H-benzo[d]imidazole-5-sulfonamido)benzoate]
139 nM | C[C@@H](NC(=O)[C@H]1CC[C@H](NS(=O)(=O)c2ccc3ncccc3c2)CC1)c1ccc(F)cc1 [Example 111, (1r,4R)-N-((R)-1-(4-fluorophenyl)ethyl)-4-(quinoline-6-sulfonamido)cyclohexanecarboxamide]
175 nM | CCOC(=O)COc1ccc2cc(S(=O)(=O)N[C@H]3CC[C@H](C(=O)N[C@H](C)c4ccc(F)cc4)CC3)ccc2n1 [Example 73, ethyl 2-(6-(N-((1R,4r)-4-((R)-1-(4-fluorophenyl)ethylcarbamoyl)cyclohexyl)sulfamoyl)quinolin-2-yloxy)acetate]
47 nM | CN1CCN(c2ccc(Nc3nc4cc(S(=O)(=O)N[C@H]5CC[C@H](c6nnc(C(C)(C)C)o6)CC5)ccc4[nH]3)cc2)CC1 [Example 9, N-((1r,4r)-4-(5-tert-butyl-1,3,4-oxadiazol-2-yl)cyclohexyl)-2-(4-(4-methylpiperazin-1-yl)phenylamino)-1H-benzo[d]imidazole-5-sulfonamide]
20 nM | O=C([C@H]1CC[C@H](NS(=O)(=O)c2ccc3[nH]c(-c4ccc(N5CCNCC5)cc4)nc3c2)CC1)N1CCOCC1 [Example 104, N-((1r,4r)-4-(morpholine-4-carbonyl)cyclohexyl)-2-(4-(piperazin-1-yl)phenyl)-1H-benzo[d]imidazole-5-sulfonamide]
